In this assay the test system is COS-7 cells expressing Q45-GFP. The assay is described as follows: FCS analysis of polyQ oligomer formation in cell lysates. The following applies: 25 mM arginine, lysed 48 hours after transfection. The assay is classed as cell-based. As to the method:
For polyQ oligomer formation, the fluorescent protein GFP fused with a protein having a PolyQ repeat consisting of 45 glutamines (Q45-GFP) was used as the monomer. Two indices obtained from FCS measurement were used to assess the property of polyQ oligomers; counts per particle (CPP) and the diffusion time of the fast components (DT1) (Non-Patent Document 11). […] DT1 reflects the size of the Q45-GFP oligomers.
FCS analysis was performed by the method described in Non-Patent Document 11. […] The cell lysates were gently sonicated and centrifuged to remove insoluble Q45-GFP inclusion bodies. The resulting supernatants containing no visible inclusion bodies were subjected to FCS measurements. From the measurements, the diffusion time, which corresponds to the average time for diffusion of fluorescent particles across the detection area and CPP, which directly reflects the number of fluorescent molecules per particle, were calculated.

With `N=C(N)NCCC[C@H](N)C(=O)O` [arginine], the “counts per particle (CPP)” value is listed as “decreased compared to untreated cells” and the “diffusion time of the fast components (DT1)” value is given as “decreased compared to untreated cells”.

For the origin of these results see patent US20190314311A1, “PHARMACEUTICAL COMPOSITION” (JAPAN SCIENCE AND TECHNOLOGY AGENCY, priority 2016, published 2019).
